From patent US4396598A, “Triiodoisophthalamide X-ray contrast agent” (Mallinckrodt, Inc., priority 1982, dated 1983)

Legend:
[1] = Acute Intracisternal Toxicity in Rats; type: in vivo, Sprague Dawley rats; conditions: rat, in vivo, concentration 450, two day observation, 95% confidence limits 1,853-2,936
Experimental: (§1) The following pharmacological studies were conducted on N,N'-bis(2,3-dihydroxypropyl)-5-N-(2-hydroxyethyl)glycolamido-2,4,6-triiodoisophthalamide (PRODUCT), prepared by the method of Example 1.
(§2) The technique described by Melartin, et al. (Invest. Radiol. 5: 13-21, 1970) was utilized to evaluate lethal effects of a solution of the PRODUCT after injection into cerebrospinal fluid at the cisterna magna. Young adult male Sprague Dawley rats were used. After dosing, the animals were housed individually and observed for immediate reactions and periodically for a two day observation period. The LD50 value was calculated by the method of Litchfield and Wilcoxin (J. Pharmacol. Exp. Therap. 96: 99-113, 1949) with the following results: […]

Sprague Dawley rats = assay: Acute Intracisternal Toxicity in Rats; type: in vivo; conditions: concentration 450, two day observation, 95% confidence limits 874-1,385
Experimental: as §1, §2

[2] = Radiographic observations, whole body radiographs in mouse after intravenous administration; type: in vivo; conditions: male mouse, i.v. (lateral tail vein), 10,000 mg I/kg (40% I solution), immediately and 5 minutes after administration
Experimental: A male mouse (23 g) was anesthetized with sodium pentobarbital (40 mg/kg, i.p.; Nembutal®, Abbott Laboratories). The N,N'-bis(2,3-dihydroxypropyl)-5-N-(2-hydroxyethyl)glycolamido-2,4,6-triiodoisophthalamide prepared by method of Example 1, was administered at a dose of 10,000 mg I/kg (40% I solution) via a lateral tail vein of the mouse at a rate of 1 ml/minute.

Swiss mice = assay: Acute Intravenous Toxicity in Mice; type: in vivo; conditions: i.v., 40% I, seven day observation
Experimental: as §1
A solution of the PRODUCT (40% I) was injected into the lateral tail vein of young adult male and female Swiss mice at a rate of 1 ml/min. […]

[3] = Radiographic observations, lateral radiograph of head and thorax in rat after intracisternal injection; type: in vivo; conditions: male rat, 137 mg I/kg (40% I solution), immediately after administration

In the case of `O=C(NCC(O)CO)c1c(I)c(C(=O)NCC(O)CO)c(I)c(N(CCO)C(=O)CO)c1I` (centres unmarked) [PRODUCT, N,N'-Bis(2,3-dihydroxypropyl)-5-N-(2-hydroxyethyl)glycolamido-2,4,6-triiodoisophthalamide], the LD50 at 48 h [1] is reported as 2330 mg/kg, the “LD50 (95% Confidence Limits)” value (Sprague Dawley rats) is reported as 1,100 mg I/kg and the “opacification on whole body radiographs” value [2] is reported as “opacification of the liver and cardiovascular and renal excretory systems”. For the same compound, the “NUMBER OF MORTALITIES/NUMBER DOSED” value (Swiss mice; 18,500 mg I/kg (39,220 mg/kg)) was 0/8, the “NUMBER OF MORTALITIES/NUMBER DOSED” value (Swiss mice; 20,000 mg I/kg (42,400 mg/kg)) was 5/8 and the “NUMBER OF MORTALITIES/NUMBER DOSED” value (Swiss mice; 21,500 mg I/kg (45,580 mg/kg)) was 10/10. For the same compound, the LD50 (Swiss mice; mice) was “about 20,000 mg I/kg” and the “visualization on lateral radiograph of the head and thorax” value [3] was “good visualization of the cisterna magna, basal cisterns, and cervical subarachnoid space”.
